Data: patent US20140066385A1, “METHOD FOR TREATING CANCER BY COMBINED USE OF DRUGS” (Astellas Pharma Inc., priority 2011, published 2014)

Tested on: Human lung cancer-derived Calu 6 (HTB-56)
Assay: Example 1: anti-tumor effect of FK330 alone or combined with chemotherapeutic agents in Calu-6 tumor-bearing nude mice
Assay type: in vivo
Description: A free-form dihydrate of FK330 was used. Hereinafter, the amount of FK330 administered is expressed in weight of the dihydrate. A docetaxel hydrate injectable preparation (Taxotere (trademark), for intravenous infusion) was purchased from Sanofi-Aventis SA, and was used as docetaxel. A paclitaxel injectable preparation (paclitaxel injection liquid “Sawai”) was purchased from Sawai Pharmaceutical Co., Ltd., and was used as paclitaxel. Irinotecan hydrochloride (Topotesin (trade name) injection) was purchased from Daiichi Sankyo Co., Ltd., and was used as irinotecan. Gemcitabine hydrochloride for injection (Gemzar (trade name) injection) was purchased from Eli Lilly Japan K.K., and was used as gemcitabine. Doxorubicin hydrochloride for injection (Adriacin (trade name) Injection 10) was purchased from Kyowa Hakko Kogyo Co., Ltd., and was used as doxorubicin. A carboplatin injection liquid (Paraplatin (trade name) injection liquid) was purchased from Bristol Myers Squibb Co., and was used as carboplatin.
FK330 was suspended (20 mg/mL) in a 0.5% aqueous methyl cellulose solution (0.5% MC). Docetaxel was prepared in the attached dissolution liquid at 4 mg/mL, and was diluted with physiological saline (Otsuka Pharmaceutical Group) to 1 mg/mL. Paclitaxel, irinotecan, gemcitabine, doxorubicin, and carboplatin were prepared with physiological saline for injection at the time of use at concentrations of 1 mg/mL, 3 mg/mL, 16 mg/mL, 1 mg/mL, and 6 mg/mL, respectively.
Human lung cancer-derived Calu 6 (HTB-56) was obtained from American Type Culture Collection (VA, USA). The cells were cultured under the conditions of 37° C. and 5% CO2 by using RPMI1640 medium containing 10% heat-inactivated fetal bovine serum (FBS). The cells were harvested with trypsin and were suspended in PBS at 6×10^7 cells/mL, and the suspension was mixed with an equal amount of Matrigel (trade name) Basement Membrane Matrix (manufactured by Becton Dickinson Co., Bedford, Mass., USA).
Five-week old male nude mice (CAnN Cg-Foxn1nu/CrlCrlj(nu/nu)) were purchased from Charles River Laboratories Japan, Inc. (Japan, Kanagawa). The animals were raised under specific pathogen-free (SPF) conditions throughout the test period by feeding standard feedstuff and drinking water. The cultured cells were subcutaneously inoculated into the dorsal region of the nude mice at a concentration of 3×10^6 cells/0.1 mL/mouse. Nude mice which had the tumor volumes (major axis×[minor axis]^2×0.52) ranging from 111.9 mm^3 to 369.3 mm^3 were assigned by using SAS to minimize the fluctuation in tumor volume between the groups and within the group.
The first day of administration was designated as Day 1, and observation was made until Day 29. The respective groups (n=5 or 6) were treated as follows. FK330 was orally gavaged (5 mL/kg) twice a day at an interval of 6 to 8 hours, and each of the chemotherapeutic agents was administered by intravenous bolus injection (10 mL/kg) through the tail vein.
FK330 single administration group: 100 mg/kg of FK330 was administered twice a day (bid) (200 mg/kg/day, administered every day from the initiation of experiment to the completion)
Docetaxel single administration group: Docetaxel 10 mg/kg/day (Day 1, 5 and 9)
Paclitaxel single administration group: Paclitaxel 10 mg/kg/day (Day 1 through 7)
Irinotecan single administration group: lrinotecan 30 mg/kg/day (Day 1 through 7)
Gemcitabine single administration group: Gemcitabine 160 mg/kg/day (Day 1, 4 and 7)
Doxorubicin single administration group: Doxorubicin 10 mg/kg/day (Day 1 and 8)
Carboplatin single administration group: Carboplatin 60 mg/kg/day (Day 1 and 2)
FK330 100 mg/kg bid+Docetaxel 10 mg/kg/day (Day 1, 5 and 9), n=6
FK330 100 mg/kg bid+Paclitaxel 10 mg/kg/day (Day 1 through 7), n=6
FK330 100 mg/kg bid+Irinotecan 30 mg/kg/day (Day 1 through 7), n=6
FK330 100 mg/kg bid+Gemcitabine 160 mg/kg/day (Day 1, 4 and 7), n=6
FK330 100 mg/kg bid+Doxorubicin 10 mg/kg/day (Day 1 and 8), n=6 […]

O=C(/C=C/c1ccc(Cl)cc1)N[C@@H](Cc1ccccn1)C(=O)NCC(=O)N1CCC(Oc2cc(C(F)(F)F)ncn2)CC1 [FK330, N^2-[(2E)-3-(4-chlorophenyl)-2-propenoyl]-N-[2-oxo-2-(4-{[6-(trifluoromethyl)pyrimidin-4-yl]oxy}piperidin-1-yl)ethyl]-3-pyridin-2-yl-L-alaninamide]
tumor volume reduction ratio compared with docetaxel-only group (Day 29, FK330 100 mg/kg bid p.o. + docetaxel 10 mg/kg/day i.v. (Day 1, 5 and 9), significant): 63.5% | tumor volume reduction ratio compared with doxorubicin-only group (Day 29, FK330 100 mg/kg bid p.o. + doxorubicin 10 mg/kg/day i.v. (Day 1 and 8), not significant): 33.5% | tumor volume reduction ratio compared with irinotecan-only group (Day 29, FK330 100 mg/kg bid p.o. + irinotecan 30 mg/kg/day i.v. (Day 1 through 7), not significant): 30.8% | tumor volume reduction ratio compared with paclitaxel-only group (Day 29, FK330 100 mg/kg bid p.o. + paclitaxel 10 mg/kg/day i.v. (Day 1 through 7), significant): 57.6% | effect of FK330 on the anti-tumor effect of carboplatin (FK330 100 mg/kg bid p.o. + carboplatin 60 mg/kg/day i.v. (Day 1 and 2)): did not affect | effect of FK330 on the anti-tumor effect of gemcitabine (FK330 100 mg/kg bid p.o. + gemcitabine 160 mg/kg/day i.v. (Day 1, 4 and 7)): did not affect | anti-tumor effect when FK330 was used alone (FK330 100 mg/kg bid p.o. alone, every day, observation until Day 29): not recognized
